Results taken from patent US20040116420A1 (priority 2001, published 2004).

Experiments:
HSV-1 protease = biological target: T1, HSV-1 protease (Human herpesvirus 1, UniProt P10210); experiment: Enzymatic assay for HSV-1 protease (assembly) inhibitor, fluorescence polarization; type: biochemical; details: read-out: HSV-1 Enzyme inhibition IC50
T1 construct: 6xHis (N); made in house; host or cells: baculovirus expression system
Outline: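 Fluorescence polarization read-out: after avidin stop, cleavage of a biotinylated DTAF-labelled release-site peptide by recombinant N-His6 HSV-1 protease was compared with no-inhibitor wells. Enzyme and compound were preincubated 30 min, then substrate reacted 60 min, all at room temperature, pH 7.4 citrate buffer with TCEP.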

HSV-1 = experiment: Antiviral activity, HSV-1 in Vero cells, plaque method; type: cell-based; details: 90% inhibition of plaque formation
Outline: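 This is a virus-yield read-out. The culture medium was frozen at −80° C and thawed, and the plaques it formed were counted. It came from Vero monolayers infected with 50,000 pfu HSV-1 and then exposed to the compound for 20 h at 37° C. EC90 is the concentration inhibiting 90% of plaque formation relative to the untreated infected control.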

Vero cells = experiment: Cytotoxicity, Vero cells, Alamar Blue; type: cell-based; details: 25 μM, 20 hours
Procedure: An Assay Method for Cytotoxicity
The Vero cells were sown on a 96-well plate and then cultured overnight. The culture supernatant was removed, and 200 μl of 2% FBS-DMEM comprising 25 μM of the test compound was added. In this case, a substance to which 2% FBS-DMEM not comprising any test compound had been added was determined as a control. These cells were incubated in the presence of 5% CO2 at 37° C. for 20 hours. Alamar Blue (20 μl) was added to the cells, and cells were incubated for about 6 hours until the color of the control changed. The ratio of the absorbance was assayed using a microplate reader for absorption, and the value relative to the control was determined to be the ratio of living cells.

[1] = Human alphaherpesvirus 1, 20 hours

T1 sequence (P10210 1-247): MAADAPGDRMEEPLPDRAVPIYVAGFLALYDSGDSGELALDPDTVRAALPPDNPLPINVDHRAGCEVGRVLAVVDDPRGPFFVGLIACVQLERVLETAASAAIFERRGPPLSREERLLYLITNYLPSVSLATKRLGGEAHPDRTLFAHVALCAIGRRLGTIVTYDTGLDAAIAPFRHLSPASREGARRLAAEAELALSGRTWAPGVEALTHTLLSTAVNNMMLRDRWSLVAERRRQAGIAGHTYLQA

Row | SMILES | IC50 (HSV-1 protease) [µM] | EC90 (HSV-1; [1]) [µM] | Cell viability (% of control) (Vero cells) [%] | EC90 (HSV-1; 20 hours) [µM]
1 | Cc1c(NC(=O)OC(C)(C)C)ccc2nc(N[C@H](C(=O)N(C)Cc3ccccn3)C(C)(C)C)oc(=O)c12 [Compound No.60, {2-[2,2-Dimethyl-1S-(methyl-pyridin-2-ylmethyl-carbamoyl)-propylamino]-5-methyl-4-oxo-4H-benzo[d][1,3]oxazin-6-yl}-carbamic acid tert-butyl ester] | 26.9 | 4.7 | 89.6 | 
2 | Cc1c(NC(=O)OC(C)(C)C)ccc2nc(N[C@@H](CC(C)C)C(=O)N(C)Cc3ccccn3)oc(=O)c12 [Compound No.62, {5-Methyl-2-[3-methyl-1S-(methyl-pyridin-2-ylmethyl-carbamoyl)-butylamino]-4-oxo-4H-benzo[d][1,3]oxazin-6-yl}-carbamic acid tert-butyl ester] | 2.4 | 4.7 | 83.9 | 
3 | Cc1c(NC(=O)OC(C)(C)C)ccc2nc(N3C[C@H](OCc4ccccc4)C[C@H]3C(=O)NCc3ccncc3)oc(=O)c12 [Compound No.111, (2-{4R-Benzyloxy-2S-[(pyridin-4-ylmethyl)-carbamoyl]-pyrrolidin-1-yl}-5-methyl-4-oxo-4H-benzo[d][1,3]oxazin-6-yl)-carbamic acid tert-butyl ester] | 3.3 | 7.8 | 80.4 | 
4 | Cc1c(NC(=O)OC(C)(C)C)ccc2nc(N3CCCC[C@H]3C(=O)NCc3ccccn3)oc(=O)c12 [Compound No.102, (5-Methyl-4-oxo-2-{2S-[(pyridin-2-ylmethyl)-carbamoyl]-piperidin-1-yl}-4H-benzo[d][1,3]oxazin-6-yl)-carbamic acid tert-butyl ester] | 1.6 | > 12.5 | 64.4 | 
5 | Cc1c(NC(=O)OC(C)(C)C)ccc2nc(N3CCCC[C@H]3C(=O)N(C)CCc3ccncc3)oc(=O)c12 [Compound No.108, (5-Methyl-2-{2S-[methyl-(2-pyridin-4-yl-ethyl)-carbamoyl]-piperidin-1-yl}-4-oxo-4H-benzo[d][1,3]oxazin-6-yl)-carbamic acid tert-butyl ester] | 4.4 | > 12.5 | 97.9 | 
6 | Cc1c(NC(=O)OC(C)(C)C)ccc2nc(N[C@@H](CCc3ccccc3)C(=O)NCCc3ccccn3)oc(=O)c12 [Compound No.42, {5-Methyl-4-oxo-2-[3-phenyl-1S-(2-pyridin-2-yl-ethylcarbamoyl)-propylamino]-4H-benzo[d][1,3]oxazin-6-yl}-carbamic acid tert-butyl ester] | 1 | 10.7 | 83.0 | 
7 | Cc1c(NC(=O)OC(C)(C)C)ccc2nc(N3C[C@H](OCc4ccccc4)C[C@H]3C(=O)N(C)CCc3ccccn3)oc(=O)c12 [Compound No.114, (2-{4R-Benzyloxy-2S-[methyl-(2-pyridin-2-yl-ethyl)-carbamoyl]-pyrrolidin-1-yl}-5-methyl-4-oxo-4H-benzo[d][1,3]oxazin-6-yl)-carbamic acid tert-butyl ester] | > 10 | 5.9 | 76.5 | 
8 | Cc1c(NC(=O)OC(C)(C)C)ccc2nc(N(C)[C@@H](C)C(=O)NCc3ccccn3)oc(=O)c12 [Compound No.71, [5-Methyl-2-(methyl-{1S-[(pyridin-2-ylmethyl)-carbamoyl]-ethyl}-amino)-4-oxo-4H-benzo[d][1,3]oxazin-6-yl]-carbamic acid tert-butyl ester] | 0.8 | > 12.5 | 107.0 | 
9 | Cc1c(NC(=O)OC(C)(C)C)ccc2nc(N3C[C@H](OCc4ccccc4)C[C@H]3C(=O)NCCc3ccccn3)oc(=O)c12 [Compound No.112, {2-[4R-Benzyloxy-2S-(2-pyridin-2-ylethylcarbamoyl)-pyrrolidin-1-yl]-5-methyl-4-oxo-4H-benzo[d][1,3]oxazin-6-yl}-carbamic acid tert-butyl ester] | 2.7 | 10.7 | 84.2 | 
10 | Cc1c(NC(=O)OC(C)(C)C)ccc2nc(N[C@H](C(=O)N(C)CCc3ccncc3)C(C)(C)C)oc(=O)c12 [Compound No.52, (2-{2,2-Dimethyl-1S-[methyl-(2-pyridin-4-yl-ethyl)-carbamoyl]-propylamino}-5-methyl-4-oxo-4H-benzo[d][1,3]oxazin-6-yl)-carbamic acid tert-butyl ester] | 49 | 6 | 64.5 | 
11 | Cc1c(NC(=O)OC(C)(C)C)ccc2nc(N[C@@H](CC(C)C)C(=O)N(C)CCc3cccnc3)oc(=O)c12 [Compound No.68, (5-Methyl-2-{3-methyl-1S-[methyl-(2-pyridin-3-yl-ethyl)-carbamoyl]-butylamino}-4-oxo-4H-benzo[d][1,3]oxazin-6-yl)-carbamic acid tert-butyl ester] | 2 | 6.1 | 66.9 | 
12 | Cc1c(NC(=O)OC(C)(C)C)ccc2nc(N3CCC[C@H]3C(=O)NCc3ccncc3)oc(=O)c12 [Compound No.88, (5-Methyl-4-oxo-2-{2S-[(pyridin-4-ylmethyl)-carbamoyl]-pyrrolidin-1-yl}-4H-benzo[d][1,3]oxazin-6-yl)-carbamic acid tert-butyl ester] | 2.7 |  | 74.1 | > 12.5

Now from value to molecule, other results behind:

Row | IC50 (HSV-1 protease) [µM] | EC90 (HSV-1; [1]) [µM] | SMILES | Cell viability (% of control) (Vero cells) [%] | EC90 (HSV-1; 20 hours) [µM]
13 | 1.4 | > 12.5 | Cc1c(NC(=O)C2CCCC2)ccc2nc(NC(C)(C)C(=O)N(C)CCc3ccccn3)oc(=O)c12 [Compound No.188, Cyclopentanecarboxylic acid (5-methyl-2-{1-methyl-1-[methyl-(2-pyridin-2-yl-ethyl)-carbamoyl]-ethylamino}-4-oxo-4H-benzo[d][1,3]oxazin-6-yl)-amide] | 91.7 | 
14 | 2.6 | 6.2 | Cc1c(NC(=O)c2ccc(Cl)cc2)ccc2nc(NC(C)(C)C(=O)N(C)CCc3ccccn3)oc(=O)c12 [Compound No.153, 4-Chloro-N-(5-methyl-2-{1-methyl-1-[methyl-(2-pyridin-2-yl-ethyl)-carbamoyl]-ethylamino}-4-oxo-4H-benzo[d][1,3]oxazin-6-yl)-benzamide] | 48.6 | 
15 | 1.1 | 4.5 | CCc1ccc(C(=O)Nc2ccc3nc(NC(C)(C)C(=O)N(C)CCc4ccccn4)oc(=O)c3c2C)cc1 [Compound No.187, 4-Ethyl-N-(5-methyl-2-{1-methyl-1-[methyl-(2-pyridin-2-yl-ethyl)-carbamoyl]-ethylamino}-4-oxo-4H-benzo[d][1,3]oxazin-6-yl)-benzamide] | 65.8 | 
16 | 1 | 6.6 | Cc1c(NC(=O)c2sccc2Cl)ccc2nc(NC(C)(C)C(=O)N(C)CCc3ccccn3)oc(=O)c12 [Compound No.179, 3-Chloro-thiophene-2-carboxylic acid (5-methyl-2-{1-methyl-1-[methyl-(2-pyridin-2-yl-ethyl)-carbamoyl]-ethylamino}-4-oxo-4H-benzo[d][1,3]oxazin-6-yl)-amide] | 61.7 | 
17 | > 10 | 6.5 | Cc1c(NC(=O)OC(C)(C)C)ccc2nc(N3C[C@H](OCc4ccccc4)C[C@H]3C(=O)N(C)CCc3ccncc3)oc(=O)c12 [Compound No.116, (2-{4R-Benzyloxy-2S-[methyl-(2-pyridin-4-yl-ethyl)-carbamoyl]-pyrrolidin-1-yl}-5-methyl-4-oxo-4H-benzo[d][1,3]oxazin-6-yl)-carbamic acid tert-butyl ester] | 68.2 | 
18 | 1.3 | 10.4 | Cc1c(NC(=O)c2ccc([N+](=O)[O-])cc2)ccc2nc(NC(C)(C)C(=O)N(C)CCc3ccccn3)oc(=O)c12 [Compound No.142, N-(5-Methyl-2-{1-methyl-1-[methyl-(2-pyridin-2-yl-ethyl)-carbamoyl]-ethylamino}-4-oxo-4H-benzo[d][1,3]oxazin-6-yl)-4-nitro-benzamide] | 61.0 | 
19 | 9.3 | > 12.5 | Cc1oc(C(C)(C)C)cc1C(=O)Nc1ccc2nc(NC(C)(C)C(=O)N(C)CCc3ccccn3)oc(=O)c2c1C [Compound No.174, 5-tert-Butyl-2-methyl-furan-3-carboxylic acid (5-methyl-2-{1-methyl-1-[methyl-(2-pyridin-2-yl-ethyl)-carbamoyl]-ethylamino}-4-oxo-4H-benzo[d][1,3]oxazin-6-yl)-amide] | 30.1 | 
20 | 2 | > 12.5 | Cc1c(NC(=O)CCl)ccc2nc(NC(C)(C)C(=O)N(C)CCc3ccccn3)oc(=O)c12 [Compound No.189, 2-[6-(2-Chloro-acetylamino)-5-methyl-4-oxo-4H-benzo[d][1,3]oxazin-2-ylamino]-2,N-dimethyl-N-(2-pyridin-2-yl-ethyl)-propionamide] | 41.0 | 
